Results as given in article PMC3892053, “Pharmacokinetic/pharmacodynamic modeling for the determination of a cimicoxib dosing regimen in the dog” (BMC Veterinary Research, 2013).
In brackets after ≈: the same amount, converted by molar mass.

Columns and labels:
COX-2 = test system: COX-2; set-up: method as in PMID 12877584; conditions: human whole blood assay, cited from earlier work
[1] = test system: kaolin-induced paw inflammation; test: Kaolin paw inflammation model, observed antipyretic, analgesic and anti-inflammatory effects; assay type: in vivo, dog; conditions: oral 2 mg/kg; for Maximum effect, analgesia (paw withdrawal time to heat stimulus): 100% = control without inflammation, 2 mg/kg; for Maximum effect, body temperature: % improvement (100% = return to control); for Total duration of the effect, body temperature: time effects superior to placebo
Description: The 12 dogs were regularly trained to get accustomed to experimental and measurements conditions for at least one month before the beginning of the experiment. Furthermore, all the investigators involved received a special training for endpoints measurements. The paw inflammation model used was the kaolin model (1.55 g of Kaolin aseptically injected in the skin under general anesthesia, [15]). The measured endpoints used to evaluate the antipyretic, analgesic and anti-inflammatory effects of the NSAID were the body temperature, the paw circumference, the time to perform a creeping test under a tunnel, the lameness score, the vertical force of the paw on force plates (normalized to the dog’s body weight), the thermal pain threshold and the plantar skin temperature. For body temperature a single measurement was obtained at each time using an electronic thermometer. Paw circumference duplicate measures per time point was done just above the pad using a measuring tape (DMC, Colmar, France). Skin plantar temperature was measured (in degrees Celsius) using an infrared thermometer (Raynger M. Raytek, Fisher Bioblock Scientific - Illkirch – France) at a reference site on the plantar face of the paw, at six different times for each day and measures were performed in triplicate. Data used was the average of the three measurements performed at each time point. Creeping time was measured (in seconds) in a tunnel 6.38 m long, using a stopwatch (digital stopwatch) in triplicate for each time point and creeping speed (m/s) was used as the final measurement for this endpoint. Lameness score was assessed using a numerical rating scale as developed by Giraudel et al.. Vertical normalized force i.e. the maximal vertical force applied on the ground by a hind limb was measured with force plates (SATEL Veto; Patrick Savet, Blagnac, France); for each measurement time, three measures were recorded, the mean values were normalized to the dog’s body weight (Fmax/b.wt., kg/kg) and used in the data analyses. Pain was assessed using a hind paw thermal escape model. The model consisted of exposing the hind limb to a light beam delivered by a Hargreaves apparatus (model 390; IITC Inc., Woodlands Hills, CA). A heat intensity corresponding to 15% of the peak heating value of 150 W was selected. The paw withdrawal time (in seconds) was measured. For each trial, three measures were recorded per measurement time, and the mean of the three measures was used in the data analysis.
The study was conducted according to a classical 2×2 crossover design. Briefly, in period one, half of the dog (3 males and 3 females), received a single oral dose of cimicoxib (approximately 2 mg/kg, one 20 mg capsules – Vetoquinol Lure france) 26.5 h after the induction of kaolin inflammation on the left paw; the other half dogs received a placebo treatment at the same time. In period 2, treatments were crossed over for each dog and inflammation was induced on the right paw. A wash-out delay of at least 5 weeks was applied between the two periods. The treatment (cimicoxib or placebo) was blinded to the investigators.
At least three days before the induction of kaolin inflammation, the PD endpoints were measured twice on the same day to generate negative control values. These endpoints were also measured at 23.5 and 25.5 h after the induction of the inflammation (i.e. before the treatment) to generate positive control values. Subsequently, the PD endpoints were measured at 2, 4, 9, 15 hours after administration (measures on all dogs) and at 22 h and 27 h after administration depending on the presence of further cimicoxib activity.
For PD analysis, a percentage of improvement was calculated for all endpoints (except for the lameness score) following Equation 2:
(2) %improvement=T^+-M/T^+-T^-*100 […]

[2] = the two groups of dogs together

For `COc1ccc(-c2c(Cl)ncn2-c2ccc(S(N)(=O)=O)cc2)cc1F` [cimicoxib], the “IC50 COX-2 inhibition” value (COX-2) is listed as 0.025 µg/mL (≈ 0.0655 µM), the IC50 (COX-2; read-out: IC50 COX-2 inhibition) is listed as 66 nM and the “Duration of the maximal effect, analgesia” value ([1]; EM dogs) is listed as 7 h (from 2.9 to 9.8 h). The “Duration of the maximal effect, body temperature” value ([1]; EM dogs) was 7 h (from 2.1 to 9.1 h), the “Duration of the maximal effect, creeping speed” value ([1]; EM dogs) was 7 h (from 2.2 to 9.2 h) and the “Duration of the maximal effect, paw circumference” value ([1]; EM dogs) was 9 h (from 2.2 to 11.2 h). The “Duration of the maximal effect, skin plantar temperature” value ([1]; EM dogs) was 7 h (from 2.3 to 9.3 h), the “Duration of the maximal effect, vertical normalized force” value ([1]; EM dogs) was 6.9 h (from 2.6 to 9.5 h) and the “Total duration of the effect, creeping speed” value ([1]; EM dogs) was 15 h. For the same compound, the “Total duration of the effect, paw circumference” value ([1]; EM dogs) was 15 h, the “Total duration of the effect, skin plantar temperature” value ([1]; EM dogs) was 13 h and the “Total duration of the effect, vertical normalized force” value ([1]; EM dogs) was 16 h. For the same compound, the “Maximum effect, analgesia (paw withdrawal time to heat stimulus)” value ([1]; EM dogs) was 232 ± 45%, the “Maximum effect, creeping speed” value ([1]; EM dogs, % improvement) was 76 ± 9% and the “Maximum effect, paw circumference” value ([1]; EM dogs, % improvement) was 14 ± 2%. For the same compound, the “Maximum effect, skin plantar temperature” value ([1]; EM dogs, % improvement) was 38 ± 6%, the “Maximum effect, vertical normalized force” value ([1]; EM dogs, % improvement) was 68 ± 7% and the “Maximum effect, body temperature” value ([1]; EM dogs) was 84 ± 8%. The “Total duration of the effect, body temperature” value ([1]; EM dogs) was 13 h, the “Duration of the maximal effect, analgesia” value ([1]; PM dogs) was 8.8 h (from 2.9 to 11.8 h) and the “Duration of the maximal effect, body temperature” value ([1]; PM dogs) was 19.6 h (from 2.1 to 21.7). The “Duration of the maximal effect, clinical lameness score” value ([1]; PM dogs) was 10.9 h (from 4.8 to 15.7 h), the “Duration of the maximal effect, creeping speed” value ([1]; PM dogs) was 11.1 h (from 4.2 to 15.3 h) and the “Duration of the maximal effect, paw circumference” value ([1]; PM dogs) was 7 h (from 4.2 to 11.2 h). For the same compound, the “Duration of the maximal effect, vertical normalized force” value ([1]; PM dogs) was 11.1 h (from 4.5 to 15.5 h), the “Maximum effect, skin plantar temperature” value ([1]; PM dogs) was “No plateau observed” and the “Total duration of the effect, analgesia” value ([1]; PM dogs) was 23 h. The “Total duration of the effect, creeping speed” value ([1]; PM dogs) was 25 h, the “Total duration of the effect, paw circumference” value ([1]; PM dogs) was 20 h and the “Total duration of the effect, skin plantar temperature” value ([1]; PM dogs) was 22 h. For the same compound, the “Total duration of the effect, vertical normalized force” value ([1]; PM dogs) was 28 h, the “Maximum effect, analgesia (paw withdrawal time to heat stimulus)” value ([1]; PM dogs) was 152 ± 53% and the “Maximum effect, creeping speed” value ([1]; PM dogs, % improvement) was 77 ± 7%. The “Maximum effect, paw circumference” value ([1]; PM dogs, % improvement) was 15 ± 3%, the “Maximum effect, vertical normalized force” value ([1]; PM dogs, % improvement) was 67 ± 6% and the “Maximum effect, body temperature” value ([1]; PM dogs) was 87 ± 9%. For the same compound, the “Total duration of the effect, body temperature” value ([1]; PM dogs) was 25 h, the “overall maximal effect, body temperature” value [1, 2] was 86% and the “overall maximal effect, creeping speed” value [1, 2] was 76%.
